# Bridges are numbered along the chain shown (N, C = ends). Where no end group is shown, it is not given here. [ ]: non-standard residue; d: D form.
# How the values were obtained:
# MCF7 tumor spheres = assay: MCF7 tumor sphere assay; type: cell-based, human; settings: MCF7 cells; 150 nM with 3 μg PEP1; 3.125 ng/mL doxorubicin; 7 days (FIG. 36C)
# Method: For the experiments shown in FIG. 34E, MCF7 cells were plated at a density of 20,000 cells per well using 2 mL Mammocult media in 6-well ultra-low adherent plates. The following day, cells were treated with Pen-Ctrl or Pen-Pep8 at a concentration of 5 μM. Peptides were added to each well for 20 minutes followed by 6.25 ng/mL doxorubicin. Cells were grown for 7 days and then the number of tumor spheres that were larger than 50 μm in diameter were counted (i.e., 20 10× photos were randomly taken and tumor spheres counted from the digital photos). For the graph shown in FIG. 34F, statistical analysis was performed using the student's t-test (n=3; *p≤0.05).
# For the experiments shown in FIG. 36C, MCF7 cells were plated at a density of 20,000 cells per well using 2 mL Mammocult media in 6-well ultra-low adherent plates. The following day, cells were treated with 150 nM Cyc-Ctrl or Cyc-Pep8 (SEQ ID NO:5). 150 nM Cyc-Ctr/Pep8 was incubated in 100 μL serum-free DMEM with 3 μg PEP1 for 25 minutes before being added to the cells. After 20 minutes, 3.125 ng/mL doxorubicin was added to the cells for 7 days. Cells were grown for 7 days and then tumor spheres were counted that were larger than 50 μm in diameter (i.e., 20 10× photos were randomly taken and tumor spheres were counted from the digital photos).
# p53 [1] = assay: Western blot for p53 and downstream targets in RKO cells treated with peptides; type: cell-based, human
# eIF4E (His-tagged) = eIF4E (His-tagged) (Homo sapiens, UniProt P06730); assay: Pulldown of His-tagged eIF4E by peptides bound to TentaGel resin; type: binding; settings: linear and cyclized Pep8 on TentaGel resin; 2 μg purified eIF4E overnight (FIG. 36A)
# Method: The peptides bound to Tentagel™ resin were incubated with His-eIF4E overnight and then washed extensively before being eluted with SDS-PAGE lysis buffer followed by Western blot assay for His-eIF4E. Lane #1: peptide-8 (SEQ ID NO:1); Lane #2: Cyc-8 peptide (SEQ ID NO:5); Lane #3: kAmi-8 peptide (SEQ ID NO:8); Lane #4: Ami-8 peptide (SEQ ID NO:7).
# For the experiments shown in FIG. 36A, linear and cyclized versions of Pep8 (i.e., peptides having the amino acid sequences set forth in SEQ ID NOS:1, 5, 7, and 8) were synthesized and bound to TentaGel resin. Resin was washed 3× with 1× lysis buffer, and then incubated with 1× lysis buffer+0.3% BSA for 1 hour while rotating in a cold room. Next, resin was incubated with 1× lysis buffer+0.3% BSA+2 μg purified eIF4E (His-tagged) overnight. Next, resin was washed with 1× lysis buffer+0.3% BSA 3 times, followed by washing with 1× lysis buffer with no Triton X-100 three times. Finally, elution was performed with 1×SDS-loading buffer (70 μl) to load all onto a 12% SDS-PAGE gel for Western blot for His-tagged eIF4E.
# MCF7 cells = assay: MCF7 cell colony formation assay (peptides); type: cell-based, human; settings: MCF7 cells; 5 μM; 6.25 ng/mL doxorubicin 48 hours (FIG. 34C)
# Method: In order to test the effect of the RBM38 and eIF4E peptides on cancer cell colony formation, MCF7 cells were seeded in 6-well plates at a density of 1×10^3 cells per well. The following day, cells were treated with peptides. In order to form stable complexes with PEP1, 100 μl of serum-free DMEM was added to individual Eppendorf tubes. Control (SEQ ID NO:11), RBM38, and eIF4E peptides were added at a concentration of 375 nM and then 7.5 μg of PEP1 was added to each peptide (20:1). The complexes were incubated for 20 minutes at room temperature and then added dropwise to cells. Cell media was changed every three days until colonies were visible. The cells were fixed and then stained with crystal violet.
# In order to test the effect of a combination treatment comprising peptides of the present invention and a chemotherapeutic agent on cancer cell colony formation, MCF7 cells were seeded in 6-well plates at a density of 1×10^3 cells per well. The following day, cells were treated with peptides. In order to form stable complexes with PEP1, 100 μL of serum-free DMEM was added to individual Eppendorf tubes. Control, RBM38, eIF4E, and peptide-8 peptides were added at a concentration of 375 nM and then 7.5 μg of PEP1 was added to each peptide (20:1). The complexes were incubated for 20 minutes at room temperature and then added dropwise to cells. 20 minutes after addition of peptide complexes, 3.125 ng/mL doxorubicin was added to the cells. Cell media was changed every three days until colonies were visible. The cells were fixed and then stained with crystal violet.
# (§1) For the experiments shown in FIG. 34C, MCF7 cells were seeded on a 6-well plate at a seed density of 1×10^3 cells per well. The following day the cells were treated with 5 μM Pen-Ctrl or 5 μM Pen-Pep23. The following day, 6.25 ng/mL doxorubicin was added to the cells for 48 hours. Subsequently, the cell media was changed every 3 days until colonies were visible. The cells were fixed and stained with crystal violet.
# [2] = tested on: tumor cell colony formation; assay: Tumor cell colony formation assay, cell line not stated (FIGS. 13C, 20D); type: cell-based; settings: with and without doxorubicin 6.25 ng/mL; versus Pen-Ctrl (FIG. 20D)
# HaCaT cells = assay: HaCaT cell colony formation assay; type: cell-based; settings: HaCaT cells (mutant p53); 10 μM for 20 minutes then 0.5 ng/mL doxorubicin 18 hours (FIG. 37D)
# Method: For the experiments shown in FIG. 37D, HaCaT and MiaPaCa2 cells were grown in 6-well plates at 500 cells per well. The following day, 10 μM Pen-Ctrl (SEQ ID NO:10), Pen-Pep23 (SEQ ID NO:9), or Pen-Pep8 (SEQ ID NO:50) were added to the cells for 20 minutes followed by treatment with 0.5 ng/mL doxorubicin (for HaCaT cells) or 0.25 ng/mL doxorubicin (for miaPaCa2 cells) for 18 hours, then the media was changed to fresh DMEM. After colonies formed they were fixed (i.e., using 7:1 MeOH:glacial acetic acid) and stained with crystal violet.
# p53 [3] = assay: Western blot for p53 and downstream targets in MCF7 cells treated with peptides; type: cell-based, human; settings: MCF7 cells; 2.5 μM; 18 hours (FIG. 32C)
# RKO cells = assay: RKO cell colony formation assay (peptides); type: cell-based, human; settings: 5 μM, 3.125 ng/mL doxorubicin 48 hours (FIG. 34D)
# Method: as §1, with “34D, RKO” for “34C, MCF7”, “2×10^3” for “1×10^3”, “Pen-Ctrl, 5 μM Pen-Pep23,” for “Pen-Ctrl”, “Pen-Pep8.” for “Pen-Pep23.”, “3.125” for “6.25”
# [4] = tested on: MIA-PaCa-2 pancreatic cancer cells; assay: MIA-PaCa-2 cell colony formation assay (peptides); type: cell-based, human; settings: miaPaCa2 cells (mutant p53); 10 μM for 20 minutes then 0.25 ng/mL doxorubicin 18 hours (FIG. 37D)
# Text: […] […] After colonies formed they were fixed (i.e., using 7:1 MeOH:glacial acetic acid) and stained with crystal violet.
# p53 [5] = assay: Western blot for p53 in MCF7 cells treated with oligonucleotides; type: cell-based, human; settings: MCF7 cells (FIG. 29A)
# mutant p53 (R248W) = assay: Western blot for mutant p53 in MIA-PaCa-2 cells treated with oligonucleotides; type: cell-based; settings: p53 R248W (FIGS. 29A, 29B)
# Text: FIGS. 29A-29C show data illustrating the effects of oligonucleotides of the present invention with respect to wild type and mutant p53. […] Oligonucleotide sequences were as follows: M3, SEQ ID NO:14; 14A/G, SEQ ID NO:20; 14U/G, SEQ ID NO:49; 15A, SEQ ID NO:21; 6A/G, SEQ ID NO:45; 6U/G, SEQ ID NO:46; 10A/G, SEQ ID NO:47; 10 U/G, SEQ ID NO:48.
# FIGS. 29A and 29B show the results of experiments exploring the effects of oligonucleotides of the present invention on wild type and mutant p53. Oligonucleotides M3, 14A/G, 15A, and 6U/G were used to treat MCF7 cells expressing wild type p53 and MIA-PaCa-2 cells expressing mutant p53 (R248W). […] The effect was limited to the 6U/G oligonucleotide. […] Oligonucleotide sequences were as follows: M3, SEQ ID NO:14; 14A/G, SEQ ID NO:20; 14U/G, SEQ ID NO:49; 15A, SEQ ID NO:21; 6A/G, SEQ ID NO:45; 6U/G, SEQ ID NO:46; 10A/G, SEQ ID NO:47; 10 U/G, SEQ ID NO:48.
# eIF4E (His-tagged), sequence (P06730 whole entry): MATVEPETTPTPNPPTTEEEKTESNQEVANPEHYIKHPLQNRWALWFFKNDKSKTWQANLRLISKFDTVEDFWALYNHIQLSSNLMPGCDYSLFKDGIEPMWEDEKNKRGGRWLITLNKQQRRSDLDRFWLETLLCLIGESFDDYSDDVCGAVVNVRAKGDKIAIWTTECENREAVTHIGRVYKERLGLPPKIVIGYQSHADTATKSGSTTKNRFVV
substance,measurement,setting,value
"cYPYAASPAc ([dC]YPYAASPA[dC]; disulfide 1-10 (inferred)) [Cyc-8, disulfide cyclic 10-mer of peptide-8]","tumor spheres larger than 50 μm in diameter, sensitization to low-dose doxorubicin",MCF7 tumor spheres,sensitized MCF7 tumor spheres to low-dose doxorubicin treatment
same,"p53 expression in combination with low-dose doxorubicin, cyclized versus linear peptide",p53 [1]; 6.25 ng/mL doxorubicin (FIG. 23E),stronger effect in combination with low-dose doxorubicin
same,"upregulation of p53 (Western blot), cyclized versus linear peptide","p53 [1]; 25 nM, 50 nM, 150 nM, 375 nM peptide (FIGS. 23A-23D)",stronger upregulation of p53
same,"p53 expression, potency compared to other forms of Pep8 (Western blot)","p53 [1]; RKO cells, 25 nM, 50 nM, 150 nM or 375 nM with PEP1 at 20:1 molar ratio, 18 hours (FIG. 36B)","increased potency compared to other forms of Pep8, as shown by an increase of p53 with the addition of only 25 nM of the peptide"
same,protein expression of p53 and downstream target MDM2 (Western blot),"p53 [1]; RKO cells, 375 nM peptide with 7.5 μg PEP1 (20:1), 18 hours (FIG. 1E)",enhanced the protein expression of p53 and the downstream target MDM2
same,protein expression of p53 and downstream target MDM2 (Western blot),"p53 [1]; RKO cells, 375 nM peptide with 7.5 μg PEP1 (20:1), 18 hours (FIG. 1E), listed as cyclized version of peptide-8",able to increase p53 protein expression
same,"binding of His-tagged eIF4E (pulldown, Western blot)",eIF4E (His-tagged),bound the most eIF4E
"RQIKIWFQNRRMKWKKIGYQSHADTATKSGSTTKNRFVV [Pen-eIF4E, Penetratin fused to eIF4E peptide]","colony formation, sensitization to low-dose doxorubicin",MCF7 cells,sensitized MCF7 and RKO cells to low-dose doxorubicin
same,"cell colony formation, combination with doxorubicin",[2],striking synergistic effect
same,"colony formation, sensitization to low-dose doxorubicin",HaCaT cells,sensitized to low-dose doxorubicin
same,p53 expression (Western blot),p53 [3],induced p53 expression
same,"colony formation, sensitization to low-dose doxorubicin",RKO cells,sensitized MCF7 and RKO cells to low-dose doxorubicin
same,sensitization to low-dose etoposide (p53 Western blot),"p53 [1]; RKO cells, 1.5 μM for 20 minutes then 0.125 ng/mL etoposide 18 hours (FIG. 34I)",also to low-dose etoposide
same,sensitization to low-dose doxorubicin (p53 Western blot),"p53 [1]; RKO cells, 1.5 μM for 20 minutes then 6.25 ng/mL doxorubicin 18 hours (FIG. 34I)",sensitized to low-dose doxorubicin
same,p53 expression (Western blot),"p53 [1]; RKO cells, 2.5 μM, 18 hours (FIG. 32B)",induced p53 expression
same,protein expression of p53 and downstream target MDM2 (Western blot),"p53 [1]; RKO cells, 5 μM Penetratin fusion, 18 hours (FIG. 1F)",enhanced the protein expression of p53 and the downstream target MDM2
same,"colony formation, sensitization to low-dose doxorubicin",[4],sensitized to low-dose doxorubicin
"UUUGUUUUUUGUUU (listed as RNA, chemistry not given here) [6U/G]",p53 expression in cells expressing wild type p53,p53 [5],unregulated p53 expression
same,p53 expression in cells expressing mutant p53,mutant p53 (R248W),downregulated expression
